Test results published in PubChem BioAssay (NCI).
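Where inhibition never reached the appropriate level, the endpoint shown equals the highest concentration tested. Otherwise, values were interpolated linearly from a five-concentration, 48-hour dose response in 96-well plates. TGI marks complete inhibition of growth.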 Where a SMILES comes first, the peptide text is derived from it.

How the values were obtained:
Assay in all cases: inhibition of tumour cell growth, NCI panel, 48 h
[1] = test system: BT-549 breast
[2] = test system: LOX IMVI melanoma
[3] = test system: 786-0 renal
[4] = test system: HCC-2998 colon
[5] = test system: RPMI-8226 leukemia
[6] = test system: MOLT-4 leukemia
[7] = test system: PC-3 prostate
[8] = test system: MDA-N
[9] = test system: HOP-62 NSCLC
[10] = test system: HCT-116 colon
[11] = test system: A549 NSCLC
[12] = test system: KM12 colon
[13] = test system: CCRF-CEM leukemia
[14] = test system: OVCAR-3 ovarian
[15] = test system: MCF7 breast
[16] = test system: HT29 colon
[17] = test system: SK-MEL-2 melanoma

O=C(O)Cc1cccc2c1OC(c1ccccc1)C(C(=O)c1ccccc1)C2=O (stereo not given) was tested, and the TGI [1] was greater than 100 µM, the TGI [2] was greater than 100 µM and the TGI [3] was greater than 100 µM. The TGI [4] was 59.7 µM, the TGI [5] was greater than 100 µM and the TGI [6] was greater than 100 µM. It also gave a TGI [7] greater than 100 µM, a TGI [8] greater than 100 µM and a TGI [9] greater than 100 µM. The TGI [10] was greater than 100 µM, the TGI [11] was greater than 100 µM and the TGI [12] was greater than 100 µM. The TGI [13] was greater than 100 µM, the TGI [14] was greater than 100 µM and the TGI [15] was greater than 100 µM.
With C[C@H]1CCCCC[C@@H]2CC(=O)CC2C(=O)CCC(=O)O1 (stereo not given in full) the TGI [1] was greater than 100 µM, the TGI [3] was greater than 100 µM and the TGI [4] was greater than 100 µM. The TGI [5] was greater than 100 µM, the TGI [6] was greater than 100 µM and the TGI [7] was greater than 100 µM. The TGI [16] was greater than 100 µM, the TGI [8] was greater than 100 µM and the TGI [9] was greater than 100 µM. The TGI [10] was greater than 100 µM, the TGI [11] was greater than 100 µM and the TGI [12] was greater than 100 µM. For the same compound, the TGI [13] was greater than 100 µM, the TGI [14] was greater than 100 µM and the TGI [15] was greater than 100 µM.
O=C1/C(=C/c2ccccc2)N=C(c2ccccc2)N1C1Nc2cc3c(cc2S1)NC(N1C(=O)/C(=C/c2ccccc2)N=C1c1ccccc1)S3 (stereo not given) showed a TGI [17] of 77.5 µM, a TGI [2] greater than 100 µM and a TGI [3] greater than 100 µM. It also gave a TGI [4] of 4.76 µM, a TGI [5] of 68.4 µM and a TGI [6] of 88.2 µM. The TGI [7] was greater than 100 µM, the TGI [16] was greater than 100 µM and the TGI [8] was greater than 100 µM. The TGI [9] was greater than 100 µM, the TGI [10] was greater than 100 µM and the TGI [12] was 55.6 µM. It also gave a TGI [13] greater than 100 µM, a TGI [14] greater than 100 µM and a TGI [15] greater than 100 µM.
With CCCN(CCC)c1cc2c(cc1F)c(=O)c(C(=O)O)cn2-c1ccc(N2CCN(C)CC2)cn1 the TGI [1] was 25 µM, the TGI [2] was 9.65 µM and the TGI [3] was 36.8 µM. For the same compound, the TGI [5] was 40.4 µM, the TGI [6] was 43.4 µM and the TGI [7] was 39.3 µM. The TGI [16] was 30.5 µM, the TGI [8] was 40.1 µM and the TGI [9] was 31.4 µM. For the same compound, the TGI [10] was 28.9 µM, the TGI [11] was 34 µM and the TGI [12] was 30.3 µM. For the same compound, the TGI [13] was 36.7 µM, the TGI [14] was 29.7 µM and the TGI [15] was 53.3 µM.
COc1ccc(OC)c(-c2nc3ccccc3c(=O)[nH]2)c1 showed a TGI [17] greater than 100 µM, a TGI [1] greater than 100 µM and a TGI [3] greater than 100 µM. The TGI [4] was greater than 100 µM, the TGI [5] was greater than 100 µM and the TGI [6] was greater than 100 µM. The TGI [7] was greater than 100 µM, the TGI [16] was greater than 100 µM and the TGI [8] was greater than 100 µM. The TGI [9] was greater than 100 µM, the TGI [10] was greater than 100 µM and the TGI [11] was greater than 100 µM. The TGI [12] was greater than 100 µM, the TGI [13] was greater than 100 µM and the TGI [14] was greater than 100 µM. For the same compound, the TGI [15] was greater than 100 µM.
For O=C(/C=C\c1ccccc1)Oc1ccc(/C=C2\CCCCC2=O)cc1, the TGI [17] was greater than 100 µM, the TGI [2] was greater than 100 µM and the TGI [3] was greater than 100 µM. It also gave a TGI [4] greater than 100 µM, a TGI [5] of 50.6 µM and a TGI [6] of 16.5 µM. The TGI [7] was greater than 100 µM, the TGI [16] was 31.7 µM and the TGI [8] was greater than 100 µM. It also gave a TGI [9] greater than 100 µM, a TGI [10] greater than 100 µM and a TGI [11] greater than 100 µM. The TGI [12] was greater than 100 µM, the TGI [13] was 27.2 µM and the TGI [14] was greater than 100 µM. The TGI [15] was greater than 100 µM.
CC(=O)NC(CS)C(=O)NC(CO)C(=O)NC(CO)C(=O)NC(Cc1c[nH]c2ccccc12)C(=O)N1CCCC1C(=O)NC(CO)C(=O)NC(Cc1c[nH]c2ccccc12)C(=O)NC(Cc1c[nH]cn1)C(=O)NC(CO)C(=O)NC(Cc1c[nH]c2ccccc12)C(=O)NCC(=O)NCC(=O)NC(CC(=O)O)C(=O)NC(CCC(N)=O)C(=O)NC(CCCCN)C(=O)NC(Cc1ccccc1)C(=O)NC(CCCNC(=N)N)C(=O)NC(CCCCN)C(N)=O (stereo not given) (Ac-CSSWPSWHSWGGDQKFRK-NH2; configuration not given here) showed a TGI [17] greater than 25 µM, a TGI [1] greater than 25 µM and a TGI [2] greater than 25 µM. For the same compound, the TGI [3] was greater than 25 µM, the TGI [5] was greater than 25 µM and the TGI [6] was greater than 25 µM. It also gave a TGI [7] greater than 25 µM, a TGI [16] greater than 25 µM and a TGI [8] greater than 25 µM. For the same compound, the TGI [9] was greater than 25 µM, the TGI [10] was greater than 25 µM and the TGI [11] was greater than 25 µM. For the same compound, the TGI [12] was greater than 25 µM, the TGI [13] was greater than 25 µM and the TGI [14] was greater than 25 µM. The TGI [15] was greater than 25 µM.
In the case of NC1CC(=O)c2csc(Cl)c21 (stereo not given), the TGI [17] is reported as 30.7 µM, the TGI [1] is reported as 33.4 µM and the TGI [2] is reported as 24.1 µM. The TGI [3] was 2.96 µM, the TGI [4] was 33.9 µM and the TGI [6] was 3.87 µM. For the same compound, the TGI [7] was 23.9 µM, the TGI [16] was 29.2 µM and the TGI [8] was 22 µM. It also gave a TGI [9] of 29.1 µM, a TGI [10] of 14.1 µM and a TGI [11] of 36.7 µM. For the same compound, the TGI [12] was 17.4 µM, the TGI [13] was 3.68 µM and the TGI [14] was 30.9 µM. It also gave a TGI [15] greater than 100 µM.
In the case of CC(C)[Si](OC1=C(C(=O)N(C)c2ccccc2Cl)CCCC1)(C(C)C)C(C)C, the TGI [17] is reported as 29.3 µM, the TGI [2] is reported as 30 µM and the TGI [3] is reported as 34.6 µM. For the same compound, the TGI [4] was 28.1 µM, the TGI [5] was 55.4 µM and the TGI [6] was 43 µM. For the same compound, the TGI [7] was 24.4 µM, the TGI [16] was 32.3 µM and the TGI [8] was 34.3 µM. It also gave a TGI [9] of 34.6 µM, a TGI [11] of 14.3 µM and a TGI [12] of 27.5 µM. It also gave a TGI [13] of 29.7 µM, a TGI [14] of 27.5 µM and a TGI [15] of 27.2 µM.
Work on CCCNC(C#N)c1ccc(OCCCCCCCCCCOc2ccc(C(C#N)NCCC)cc2)cc1 (stereo not given) yielded a TGI [17] greater than 100 µM, a TGI [1] greater than 100 µM and a TGI [2] of 34.6 µM. The TGI [3] was greater than 100 µM, the TGI [4] was greater than 100 µM and the TGI [6] was 39.8 µM. For the same compound, the TGI [7] was greater than 100 µM, the TGI [16] was greater than 100 µM and the TGI [8] was greater than 100 µM. For the same compound, the TGI [9] was greater than 100 µM, the TGI [10] was greater than 100 µM and the TGI [11] was greater than 100 µM. For the same compound, the TGI [12] was greater than 100 µM, the TGI [13] was 43.7 µM and the TGI [14] was 81.1 µM. It also gave a TGI [15] greater than 100 µM.
CN(C)CCCNc1ccnc2cc([N+](=O)[O-])ccc12 gave a TGI [17] of 29.7 µM, a TGI [1] of 33.4 µM and a TGI [2] of 24.6 µM. It also gave a TGI [3] of 28.8 µM, a TGI [5] greater than 100 µM and a TGI [6] greater than 100 µM. The TGI [7] was 42.4 µM, the TGI [16] was 6.99 µM and the TGI [8] was 25.7 µM. The TGI [9] was 42.3 µM, the TGI [10] was 23.7 µM and the TGI [11] was 60.6 µM. It also gave a TGI [12] of 26.4 µM, a TGI [13] greater than 100 µM and a TGI [14] of 29.9 µM. The TGI [15] was 16.7 µM.
Work on CC(C)=C[C@@H]1C[C@H](C)c2c(O)cc(C)c3c2C1=C(C)C(=O)C3=O yielded a TGI [1] of 28.1 µM, a TGI [2] of 33.3 µM and a TGI [3] of 36.1 µM. For the same compound, the TGI [4] was 54.3 µM, the TGI [5] was 41.6 µM and the TGI [6] was greater than 100 µM. For the same compound, the TGI [7] was 23.6 µM, the TGI [16] was 40.6 µM and the TGI [8] was 33.7 µM. The TGI [9] was 35.8 µM, the TGI [10] was 28.5 µM and the TGI [11] was 21.7 µM. For the same compound, the TGI [12] was 31.3 µM, the TGI [13] was 47.2 µM and the TGI [14] was 32.1 µM. The TGI [15] was 65.8 µM.
Compound O=C(Cc1ccccc1)NNc1nc(NNC(=O)c2ccncc2)nc(Nc2ccccc2)n1 has a TGI [1] greater than 10 µM, a TGI [2] greater than 10 µM and a TGI [3] greater than 10 µM. For the same compound, the TGI [4] was greater than 10 µM, the TGI [5] was greater than 10 µM and the TGI [6] was greater than 10 µM. For the same compound, the TGI [16] was greater than 10 µM, the TGI [8] was greater than 10 µM and the TGI [9] was greater than 10 µM. It also gave a TGI [12] greater than 10 µM, a TGI [13] greater than 10 µM and a TGI [15] greater than 10 µM.
Work on CC(C)(C)CC(C)(C)N=C(N)NO yielded a TGI [17] greater than 100 µM, a TGI [2] greater than 100 µM and a TGI [3] greater than 100 µM. The TGI [4] was greater than 100 µM, the TGI [5] was greater than 100 µM and the TGI [6] was greater than 100 µM. For the same compound, the TGI [7] was greater than 100 µM, the TGI [16] was greater than 100 µM and the TGI [8] was greater than 100 µM. It also gave a TGI [9] greater than 100 µM, a TGI [10] greater than 100 µM and a TGI [11] greater than 100 µM. It also gave a TGI [12] greater than 100 µM, a TGI [13] greater than 100 µM and a TGI [14] greater than 100 µM. For the same compound, the TGI [15] was greater than 100 µM.
